Some test systems named below: OVCAR-4 ovarian; MCF7 breast; 786-0 renal; NCI-H23 lung; A498 renal; K-562 leukemia; BT-549 breast; A549 NSCLC; UACC-257 melanoma; NCI-H226 lung; UO-31 renal; SR leukemia; HL-60(TB) leukemia; SK-OV-3 ovarian; OVCAR-3 ovarian.
Assay in all cases: NCI tumour cell line growth inhibition, 48 h

Each structure is given as a SMILES string.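 Briefly, cells in 96-well plates were exposed to five compound concentrations for 48 h, and endpoints were estimated by linear interpolation. TGI denotes the concentration required for complete inhibition of growth.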 Some results are limits rather than exact numbers.

As to `O=C1C(Cl)C2(CC(/C=C/c3ccccc3)=NN2c2cccc(S(=O)(=O)O)c2)N1c1nc2ccccc2s1` (stereo not drawn), the TGI in the assay on OVCAR-4 ovarian was found to be 31.9 µM; in the assay with MCF7 breast, 36.6 µM; with 786-0 renal, 31 µM; with NCI-H23 lung, 28.1 µM; in the assay with A498 renal it was 38.8 µM; in the assay with K-562 leukemia, 54.3 µM. The TGI in the assay with BT-549 breast is 28.5 µM; with A549 NSCLC, 30.2 µM; with UACC-257 melanoma, 54.4 µM; with NCI-H226 lung, 56.2 µM; with UO-31 renal it was 16.1 µM; in the assay on SR leukemia, 30 µM. This compound also yielded a TGI in the assay on HL-60(TB) leukemia of 33.8 µM.
For the compound `CCOC(=O)c1sc2nc(SC)nc3c2c1NCN3c1ccc2c(c1)OCO2`, the TGI with OVCAR-4 ovarian is 26.4 µM; in the assay on SK-OV-3 ovarian, 24.2 µM; in the assay on MCF7 breast, above 100 µM; in the assay with 786-0 renal it was 15 µM; in the assay on NCI-H23 lung it was above 100 µM; in the assay on A498 renal, 87.4 µM. Also, the TGI is 50 µM in the assay on OVCAR-3 ovarian; above 100 µM in the assay on K-562 leukemia; above 100 µM in the assay on BT-549 breast; 25.4 µM in the assay on A549 NSCLC; above 100 µM in the assay with UACC-257 melanoma; above 100 µM with NCI-H226 lung. In addition, the figures for the TGI in the assay on UO-31 renal, in the assay on SR leukemia and in the assay with HL-60(TB) leukemia were 69.8 µM, above 100 µM and above 100 µM, respectively.
As to `N[C@H](C(=O)O)[C@@H]1CC(Br)=NO1`, the TGI with OVCAR-4 ovarian, in the assay on SK-OV-3 ovarian, with MCF7 breast, in the assay with 786-0 renal, with NCI-H23 lung and in the assay with A498 renal was above 100 µM throughout. The TGI in the assay on OVCAR-3 ovarian, with K-562 leukemia, in the assay on BT-549 breast, with A549 NSCLC, in the assay with UACC-257 melanoma and in the assay with NCI-H226 lung was above 100 µM each time. For the same compound, the TGI with UO-31 renal, with SR leukemia and with HL-60(TB) leukemia was above 100 µM in each case.
Regarding `CCOC(=O)C(C(=O)OCC)=C1NC2(c3ccccc3Nc3ccccc32)C(C#N)S1` (stereo not drawn), the TGI with OVCAR-4 ovarian was 18.5 µM; in the assay with SK-OV-3 ovarian it was 53.8 µM; with MCF7 breast, 13.3 µM; in the assay on 786-0 renal, 23.8 µM; with NCI-H23 lung, 16 µM; in the assay with A498 renal, 29.2 µM. Further, the TGI in the assay on OVCAR-3 ovarian was 4.78 µM; in the assay with K-562 leukemia, 28.4 µM; in the assay on BT-549 breast, 27.5 µM; in the assay with A549 NSCLC, 20.9 µM; in the assay on UACC-257 melanoma, 36 µM; with NCI-H226 lung, 26.2 µM. For the same compound, the TGI in the assay with UO-31 renal was found to be 25.3 µM; in the assay with SR leukemia, 6.81 µM; with HL-60(TB) leukemia, 55.5 µM.
In the case of `O=C(c1ccccc1)N(C(=O)c1ccccc1)c1nc(SCc2ccccc2)ns1`, the TGI was above 100 µM in the assay on OVCAR-4 ovarian; above 100 µM in the assay on SK-OV-3 ovarian; above 100 µM in the assay with MCF7 breast; 70.5 µM in the assay with 786-0 renal; 57.3 µM with NCI-H23 lung; 73.9 µM in the assay on A498 renal. For the same compound, the TGI in the assay with OVCAR-3 ovarian was 59.4 µM; in the assay with K-562 leukemia, above 100 µM; in the assay on BT-549 breast, 70.5 µM; with A549 NSCLC it was above 100 µM; in the assay on UACC-257 melanoma, 60.5 µM; in the assay on NCI-H226 lung, 78.7 µM. The TGI in the assay on UO-31 renal was 23.7 µM; in the assay with SR leukemia, 57.9 µM; with HL-60(TB) leukemia it was 52.6 µM.
`CCOC(=O)C(=CNc1ccc(NC2=NCC(C)S2)cc1)C(=O)OCC` (stereo not drawn): the TGI in the assay with OVCAR-4 ovarian is above 51.8 µM; with SK-OV-3 ovarian, above 100 µM; in the assay with MCF7 breast it was above 100 µM; in the assay on 786-0 renal, 84.6 µM; with NCI-H23 lung, above 100 µM; in the assay with A498 renal, above 100 µM. Moreover, the TGI in the assay on OVCAR-3 ovarian was 60.1 µM; with K-562 leukemia it was 4.69 µM; with BT-549 breast, 48.9 µM; with A549 NSCLC it was above 100 µM; in the assay on UACC-257 melanoma it was above 100 µM; in the assay on NCI-H226 lung, above 100 µM. For the same compound, the figures for the TGI in the assay on UO-31 renal, in the assay with SR leukemia and in the assay on HL-60(TB) leukemia were 73 µM, above 69.8 µM and 16.4 µM, respectively.
Regarding `Oc1ccc2cc(Br)ccc2c1-c1c(O)ccc2ccc(Br)cc12`, the TGI in the assay with SK-OV-3 ovarian was found to be 24.6 µM; with MCF7 breast, 28.8 µM; in the assay with 786-0 renal, 28.2 µM; in the assay on NCI-H23 lung, 29.1 µM; with A498 renal, 32.1 µM; in the assay with OVCAR-3 ovarian, 27.8 µM. For the same compound, the TGI in the assay on K-562 leukemia came out at 35.8 µM; in the assay on BT-549 breast, 27.9 µM; in the assay on A549 NSCLC, 30.4 µM; with UACC-257 melanoma, 33.9 µM; in the assay on NCI-H226 lung, 30.4 µM; in the assay on UO-31 renal, 28.8 µM. For the same compound, the TGI in the assay with SR leukemia came to 52.4 µM; in the assay with HL-60(TB) leukemia, 38.2 µM.
On to `O=C(/C=C/c1ccccc1)Oc1ccc(C(=O)/C=C/c2ccc(Cl)cc2)cc1`, for which the TGI in the assay with SK-OV-3 ovarian, with MCF7 breast, in the assay with 786-0 renal, in the assay with A498 renal, in the assay with OVCAR-3 ovarian and with K-562 leukemia was above 100 µM in each case. Further, the TGI in the assay on BT-549 breast, in the assay with A549 NSCLC, with UACC-257 melanoma, in the assay on UO-31 renal, with SR leukemia and in the assay with HL-60(TB) leukemia was above 100 µM throughout.
On to `CC1(c2nc3ccccc3[nH]2)CCC(C(=O)O)C(C)(C)O1` (stereo not drawn), for which the TGI with OVCAR-4 ovarian, with SK-OV-3 ovarian, with MCF7 breast, in the assay with 786-0 renal, with NCI-H23 lung and with OVCAR-3 ovarian was above 100 µM throughout. Moreover, the TGI in the assay on K-562 leukemia, in the assay on BT-549 breast, with A549 NSCLC, in the assay on UACC-257 melanoma, in the assay with NCI-H226 lung and in the assay on UO-31 renal was above 100 µM throughout. Moreover, the TGI in the assay on SR leukemia and in the assay on HL-60(TB) leukemia was above 100 µM each time.

The values above are taken from PubChem BioAssay (NCI).
